Entries after “also recorded” stand apart in the source; their conditions may differ.
Assays:
[1] = target: T1, Human 5-HT1F receptor transfected NIH3T3 cells (Homo sapiens, UniProt P30939); assay: Inhibition of forskolin stimulated cAMP formation; format: cell-based
T1 construct: expressed in transfected cells; host or cells: NIH3T3 cells
T1 sequence (P30939 1-366): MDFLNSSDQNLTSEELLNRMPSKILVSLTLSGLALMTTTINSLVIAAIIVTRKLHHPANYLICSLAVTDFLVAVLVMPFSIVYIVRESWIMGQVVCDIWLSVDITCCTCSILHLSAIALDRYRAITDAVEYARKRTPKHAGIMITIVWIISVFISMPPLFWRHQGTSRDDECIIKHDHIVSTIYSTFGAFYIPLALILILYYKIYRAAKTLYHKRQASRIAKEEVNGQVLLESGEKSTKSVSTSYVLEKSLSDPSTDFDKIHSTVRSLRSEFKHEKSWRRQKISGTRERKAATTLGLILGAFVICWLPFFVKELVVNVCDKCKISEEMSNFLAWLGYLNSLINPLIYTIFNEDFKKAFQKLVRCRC
Description: As was reported by R. L. Weinshank, et al., WO93/14201, the 5-HT1F receptor is functionally coupled to a G-protein as measured by the ability of serotonin and serotonergic drugs to inhibit forskolin stimulated cAMP production in NIH3T3 cells transfected with the 5-HT1F receptor. Adenylate cyclase activity was determined using standard techniques. A maximal effect is achieved by serotonin. An Emax is determined by dividing the inhibition of a test compound by the maximal effect and determining a percent inhibition. N. Adham, et al., supra; R. L. Weinshank, et al., Proceedings of the National Academy of Sciences (USA), 89:3630-3634, 1992; and the references cited therein.
Human 5-HT1F receptor transfected NIH3T3 cells (estimated Bmax from one point competition studies=488 fmol/mg of protein) were incubated in DMEM, 5 mM theophylline, 10 mM HEPES (4-[2-hydroxyethyl]-1-piperazineethanesulfonic acid) and 10 μM pargyline for 20 minutes at 37° C., 5% CO2. Drug dose-effect curves were then conducted by adding 6 different final concentrations of drug, followed immediately by the addition of forskolin (10 μM). Subsequently, the cells were incubated for an additional 10 minutes at 37° C., 5% CO2. The medium was aspirated and the reaction was stopped by the addition of 100 mM HCl. […] Radioactivity was quantified using a Packard COBRA Auto Gamma counter, equipped with data reduction software.

patients with migraine = assay: Intravenous dose-finding study in acute migraine: tolerability and safety; format: in vivo, human
Description: The study used a prospective, randomized, double-blind, placebo-controlled design with group-sequential adaptive-treatment assignment (Olesen J et al., N Engl J Med 2004: 350: 1104-10; Hall D B et al., Contemporary Clinical Trials 2005; 26: 349-63). […] The first cohort was allocated to the 2.5 mg dose level. The dose used in subsequent cohorts depended on the headache response (moderate or severe headache reduced to mild or none at 2 hours) of the previous cohort: if 2 or less of the 4 active-treated patients had responded, the dose was increased, and if 3 or more of the 4 active-treated patients had responded, the dose was reduced. The dose adjustment rules were chosen to identify doses of Compound I with efficacy similar to or better than an oral triptan. […] The occurrence of a drug-related serious adverse event would lead to automatic suspension of the randomization pending a safety review.
Data were entered concurrently into an online electronic data capture system. Patients were discharged from the clinic after 4 h and continued to record migraine symptoms and adverse events until 24 h using a diary card.

[2] = test system: healthy male and female subjects; assay: Oral safety and tolerability, Study 1 and Study 2; format: in vivo, human; parameters: Subjects with Nausea: dose or concentration left out as unconfirmed
rabbit saphenous vein [3] = details: concentrations up to 0.1 mM; cited from earlier work
rabbit saphenous vein [4] = assay: Rabbit saphenous vein contraction
[5] = Study 2 Part 1, 200 mg tablet (N = 28)
[6] = Study 2 Part 1, 200 mg tablet (N = 29)
[7] = Study 2 Part 2, 50 mg tablet (N = 28)
[8] = Study 2 Part 2, 400 mg tablet (N = 28)

For `CN1CCC(C(=O)c2cccc(NC(=O)c3c(F)cc(F)cc3F)n2)CC1` [Compound I, 2,4,6-trifluoro-N-[6-(1-methyl-piperidin-4-ylcarbonyl)-pyridin-2-yl]-benzamide], the “functional activity in cAMP assay” value [1] was “agonist of the 5-HT1F receptor”, the “Patients with adverse event Fatigue” value (patients with migraine; 2.5 mg iv) was 0.0% and the “Patients with adverse event Feeling of relaxation” value (from here on “Patients … of relaxation”) (patients with migraine; 2.5 mg iv) was 0.0%. The “Patients with adverse event Paresthesia” value (patients with migraine; 2.5 mg iv) was 0.0%, the “Patients with adverse event Sensation of heaviness” value (“Patients … of heaviness” for short) (patients with migraine; 2.5 mg iv) was 0.0% and the “Patients … of relaxation” value (patients with migraine; 5 mg iv) was 0.0%. For the same compound, the “Patients with adverse event Paresthesia” value (patients with migraine; 5 mg iv) was 0.0%, the “Patients … of heaviness” value (patients with migraine; 5 mg iv) was 0.0% and the “Patients … of relaxation” value (patients with migraine; 10 mg iv) was 0.0%. The “Patients with adverse event Fatigue” value (patients with migraine; 45 mg iv) was 0.0%, the “Patients … of relaxation” value (patients with migraine; 45 mg iv) was 0.0% and the “Patients … of heaviness” value (patients with migraine; 45 mg iv) was 0.0%. The “patients reporting adverse events” value (patients with migraine; all iv doses 2.5 to 45 mg (placebo 43%)) was 65%, the tolerability (patients with migraine; doses above 60 mg intravenously over 20 minutes) was “not well tolerated” and the “serious adverse events or withdrawals” value (patients with migraine; iv) was “no serious adverse events or withdrawals due to non-serious adverse events”. For the same compound, the “vital signs, ECG, hematological and clinical chemistry parameters” value (patients with migraine; iv) was “No clinically significant changes; also recorded: no clinically significant abnormalities”, the tolerability (patients with migraine; iv 2.5 to 45 mg over 20 min) was “generally well tolerated” and the triptan-like chest symptoms (patients with migraine; iv infusion) was “No patient reported triptan-like chest symptoms; also recorded: no patient-reported chest symptoms or chest discomfort”. For the same compound, the “Subjects with Blurred vision” value [2, 5] was 0 n, the “Subjects with Feeling hot” value [2, 5] was 0 n and the “Subjects with Palpitations” value [2, 5] was 0 n. For the same compound, the “Subjects with Blurred vision” value [2, 6] was 0 n, the “Subjects with Diarrhea” value [2, 6] was 0 n and the “Subjects with Feeling hot” value [2, 6] was 0 n. The “Subjects with Headache” value [2, 6] was 0 n, the “Subjects with Palpitations” value [2, 6] was 0 n and the “Subjects with Blurred vision” value [2, 7] was 0 n. The “Subjects with Diarrhea” value [2, 7] was 0 n, the “Subjects with Feeling hot” value [2, 7] was 0 n and the “Subjects with Headache” value [2, 7] was 0 n. For the same compound, the “Subjects with Diarrhea” value [2, 8] was 0 n, the “Subjects with Palpitations” value [2, 8] was 0 n and the “Subjects with Nausea” value ([2]; Study 2 Part 2, tablet (N = 28)) was 0 n. For the same compound, the “fatigue, females” value ([2]; after the 400 mg oral dose) was 50%, the “fatigue, males” value ([2]; after the 400 mg oral dose) was 21% and the tolerability ([2]; all oral doses of solution and tablet) was “well tolerated”. The tolerability ([2]; doses above 400 mg administered orally) was “not well tolerated”, the “constriction of rabbit saphenous vein” value (rabbit saphenous vein [3]) was “did not constrict” and the vasoconstrictive activity (rabbit saphenous vein [4]) was “not be significantly vasoconstrictive”.
